Tests used:
[1] = Clearance in male Sprague-Dawley rat at 20 mg/kg, ip measured after 8 hrs by LC-MS analysis; assay type: ADME, organism-based; conditions: in vivo
B16-F10 [2] = assay: Cytotoxicity against mouse B16-F10 cells assessed as reduction in cell viability at effective concentration incubated for 24 hrs by CCK8 assay; assay type: toxicity, cell-based; conditions: b16-f10, 24 h
[3] = Tmax in male Sprague-Dawley rat at 20 mg/kg, ip measured after 8 hrs by LC-MS analysis; assay type: ADME, organism-based; conditions: in vivo
U-87 MG = assay: Cytotoxicity against human U87 cells assessed as reduction in cell viability at effective concentration incubated for 24 hrs by CCK8 assay; assay type: toxicity, cell-based; conditions: u-87mg atcc
[4] = Volume of distribution in male Sprague-Dawley rat at 2 mg/kg, iv measured after 8 hrs by LC-MS analysis; assay type: ADME, organism-based; conditions: in vivo
[5] = Volume of distribution in male Sprague-Dawley rat at 100 mg/kg, po measured after 8 hrs by LC-MS analysis; assay type: ADME, organism-based; conditions: in vivo
HEK-293T = assay: Cytotoxicity against HEK293T cells assessed as reduction in cell viability at effective concentration incubated for 24 hrs by CCK8 assay; assay type: toxicity, cell-based; conditions: human
[6] = AUC (0 to t) in male Sprague-Dawley rat at 20 mg/kg, ip measured after 8 hrs by LC-MS analysis; assay type: ADME, organism-based; conditions: in vivo
[7] = Half-life in male Sprague-Dawley rat at 100 mg/kg, po measured after 8 hrs by LC-MS analysis; assay type: ADME, organism-based; conditions: in vivo
[8] = AUC (0 to infinity) in male Sprague-Dawley rat at 2 mg/kg, iv measured after 8 hrs by LC-MS analysis; assay type: ADME, organism-based; conditions: in vivo
[9] = target: T1, Tryptophan 2,3-dioxygenase (Homo sapiens, UniProt P48775)
Target sequence in this assay (P48775 whole entry): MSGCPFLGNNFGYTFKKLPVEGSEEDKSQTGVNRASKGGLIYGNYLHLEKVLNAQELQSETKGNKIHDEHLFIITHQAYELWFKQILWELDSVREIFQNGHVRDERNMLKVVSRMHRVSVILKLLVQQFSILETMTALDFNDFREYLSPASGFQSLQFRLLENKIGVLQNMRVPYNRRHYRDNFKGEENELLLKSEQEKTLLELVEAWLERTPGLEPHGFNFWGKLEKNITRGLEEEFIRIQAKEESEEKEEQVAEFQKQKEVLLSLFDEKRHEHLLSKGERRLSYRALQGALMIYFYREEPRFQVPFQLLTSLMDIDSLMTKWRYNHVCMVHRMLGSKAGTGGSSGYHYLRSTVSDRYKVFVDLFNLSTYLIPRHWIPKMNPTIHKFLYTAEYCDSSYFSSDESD

[10] = target: T2, Indoleamine 2,3-dioxygenase 1 (Homo sapiens, UniProt P14902); assay: Binding affinity to recombinant human IDO1 assessed as dissociation rate constant at 0.78 to 25 uM by SPR analysis
Target sequence in this assay (P14902 whole entry): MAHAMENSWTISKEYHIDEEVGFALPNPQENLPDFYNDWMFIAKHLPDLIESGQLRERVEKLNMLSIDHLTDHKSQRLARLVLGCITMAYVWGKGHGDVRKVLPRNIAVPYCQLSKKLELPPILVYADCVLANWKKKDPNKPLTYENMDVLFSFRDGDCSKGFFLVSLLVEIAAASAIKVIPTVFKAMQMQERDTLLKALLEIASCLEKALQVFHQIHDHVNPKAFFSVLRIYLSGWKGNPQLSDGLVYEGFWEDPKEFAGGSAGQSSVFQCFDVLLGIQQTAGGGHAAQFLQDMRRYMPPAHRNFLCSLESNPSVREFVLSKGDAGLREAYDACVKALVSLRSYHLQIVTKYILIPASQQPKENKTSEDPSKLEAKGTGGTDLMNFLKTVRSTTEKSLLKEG

[11] = Toxicity in male C57BL/6 mouse implanted with mouse B16-F10 cells assessed as effect on kidney morphology at 25 to 100 mg/kg, ip administered once daily for 14 days by H and E staining based analysis; assay type: organism-based; conditions: in vivo, 336 h, dose 25-100 mg/kg, time 14 day
B16-F10 [12] = assay: Antitumor activity against mouse B16-F10 cells implanted in male C57BL/6 mouse model assessed as suppression of tumor growth administered intraperitoneally once daily for 14 days; assay type: functional, cell-based; conditions: dose 25-100 mg/kg, route ip, time 14.0 day
[13] = target: T2, Indoleamine 2,3-dioxygenase 1; assay: Binding affinity to recombinant human IDO1 assessed as equilibrium dissociation constant by SPR analysis
Target sequence in this assay (P14902 whole entry): as above

[14] = target: T1, Tryptophan 2,3-dioxygenase; conditions: dose 0.78-25 µM
Target sequence in this assay (P48775 whole entry, looked up): as the sequence (P48775 whole entry) above

[15] = Cmax in male Sprague-Dawley rat at 100 mg/kg, po measured after 8 hrs by LC-MS analysis; assay type: ADME, organism-based; conditions: in vivo
[16] = AUC (0 to infinity) in male Sprague-Dawley rat at 20 mg/kg, ip measured after 8 hrs by LC-MS analysis; assay type: ADME, organism-based; conditions: in vivo
[17] = target: T2, Indoleamine 2,3-dioxygenase 1; assay: Inhibition of IDO1 in IFN-gamma induced human HeLa cells using L-tryptophan as substrate incubated for 24 hrs by absorbance based microplate analysis; assay type: cell-based
Target sequence in this assay (P14902 whole entry): as the sequence (P14902 whole entry) above

[18] = Tmax in male Sprague-Dawley rat at 100 mg/kg, po measured after 8 hrs by LC-MS analysis; assay type: ADME, organism-based; conditions: in vivo
[19] = Tmax in male Sprague-Dawley rat at 2 mg/kg, iv measured after 8 hrs by LC-MS analysis; assay type: ADME, organism-based; conditions: in vivo
[20] = Oral bioavailability in male Sprague-Dawley rat at 100 mg/kg measured after 8 hrs by LC-MS analysis; assay type: ADME, organism-based; conditions: in vivo
[21] = Cmax in male Sprague-Dawley rat at 20 mg/kg, ip measured after 8 hrs by LC-MS analysis; assay type: ADME, organism-based; conditions: in vivo
[22] = target: T2, Indoleamine 2,3-dioxygenase 1; conditions: dose 0.78-25 µM
Target sequence in this assay (P14902 whole entry, looked up): as the sequence (P14902 whole entry) above

[23] = AUC (0 to t) in male Sprague-Dawley rat at 2 mg/kg, iv measured after 8 hrs by LC-MS analysis; assay type: ADME, organism-based; conditions: in vivo
[24] = target: T1, Tryptophan 2,3-dioxygenase; remark: listed apart in the source
Target sequence in this assay (P48775 whole entry): as the sequence (P48775 whole entry) above

[25] = Bioavailability in male Sprague-Dawley rat at 20 mg/kg, ip measured after 8 hrs by LC-MS analysis; assay type: ADME, organism-based; conditions: in vivo
HeLa = assay: Cytotoxicity against human HeLa cells assessed as reduction in cell viability at effective concentration incubated for 24 hrs by CCK8 assay; assay type: toxicity, cell-based
[26] = AUC (0 to infinity) in male Sprague-Dawley rat at 100 mg/kg, po measured after 8 hrs by LC-MS analysis; assay type: ADME, organism-based; conditions: in vivo
[27] = Toxicity in male C57BL/6 mouse implanted with mouse B16-F10 cells assessed as effect on liver morphology at 25 to 100 mg/kg, ip administered once daily for 14 days by H and E staining based analysis; assay type: organism-based; conditions: in vivo, 336 h, dose 25-100 mg/kg, time 14 day
[28] = Clearance in male Sprague-Dawley rat at 2 mg/kg, iv measured after 8 hrs by LC-MS analysis; assay type: ADME, organism-based; conditions: in vivo
[29] = Clearance in male Sprague-Dawley rat at 100 mg/kg, po measured after 8 hrs by LC-MS analysis; assay type: ADME, organism-based; conditions: in vivo
[30] = Cmax in male Sprague-Dawley rat at 2 mg/kg, iv measured after 8 hrs by LC-MS analysis; assay type: ADME, organism-based; conditions: in vivo
[31] = Toxicity in male C57BL/6 mouse implanted with mouse B16-F10 cells assessed as body weight loss at 25 to 100 mg/kg, ip administered once daily for 14 days; assay type: organism-based; conditions: in vivo, 336 h, dose 25-100 mg/kg, time 14 day
[32] = Toxicity in male C57BL/6 mouse implanted with mouse B16-F10 cells assessed as effect on heart morphology at 25 to 100 mg/kg, ip administered once daily for 14 days by H and E staining based analysis; assay type: organism-based; conditions: in vivo, 336 h, dose 25-100 mg/kg, time 14 day
[33] = target: T2, Indoleamine 2,3-dioxygenase 1; assay: Inhibition of N-terminal His-tagged recombinant human IDO1 extracted from Escherichia coli Transetta (DE3) using L-tryptophan as substrate preincubated for 5 mins followed by substrate addition and measured after 1 hrs by absorbance based microplate reader
Target sequence in this assay (P14902 whole entry): as the sequence (P14902 whole entry) above

[34] = Half-life in male Sprague-Dawley rat at 2 mg/kg, iv measured after 8 hrs by LC-MS analysis; assay type: ADME, organism-based; conditions: in vivo
[35] = target: T1, Tryptophan 2,3-dioxygenase; remark: listed apart in the source
Target sequence in this assay (P48775 whole entry): as the sequence (P48775 whole entry) above

[36] = Volume of distribution in male Sprague-Dawley rat at 20 mg/kg, ip measured after 8 hrs by LC-MS analysis; assay type: ADME, organism-based; conditions: in vivo
[37] = Half-life in male Sprague-Dawley rat at 20 mg/kg, ip measured after 8 hrs by LC-MS analysis; assay type: ADME, organism-based; conditions: in vivo
[38] = AUC (0 to t) in male Sprague-Dawley rat at 100 mg/kg, po measured after 8 hrs by LC-MS analysis; assay type: ADME, organism-based; conditions: in vivo
[39] = Toxicity in male C57BL/6 mouse implanted with mouse B16-F10 cells assessed as effect on spleen morphology at 25 to 100 mg/kg, ip administered once daily for 14 days by H and E staining based analysis; assay type: organism-based; conditions: in vivo, 336 h, dose 25-100 mg/kg, time 14 day
[40] = Toxicity in male C57BL/6 mouse implanted with mouse B16-F10 cells assessed as effect on lung morphology at 25 to 100 mg/kg, ip administered once daily for 14 days by H and E staining based analysis; assay type: organism-based; conditions: in vivo, 336 h, dose 25-100 mg/kg, time 14 day
[41] = Toxicity in male C57BL/6 mouse implanted with mouse B16-F10 cells assessed as body weight loss at 100 mg/kg, ip administered once daily for 14 days; assay type: organism-based; conditions: in vivo, 336 h, time 14 day
[42] = Toxicity in male C57BL/6 mouse implanted with mouse B16-F10 cells assessed as effect on lung morphology at 100 mg/kg, ip administered once daily for 14 days by H and E staining based analysis; assay type: organism-based; conditions: in vivo, 336 h, time 14 day
[43] = Toxicity in male C57BL/6 mouse implanted with mouse B16-F10 cells assessed as effect on spleen morphology at 100 mg/kg, ip administered once daily for 14 days by H and E staining based analysis; assay type: organism-based; conditions: in vivo, 336 h, time 14 day
[44] = Toxicity in male C57BL/6 mouse implanted with mouse B16-F10 cells assessed as effect on liver morphology at 100 mg/kg, ip administered once daily for 14 days by H and E staining based analysis; assay type: organism-based; conditions: in vivo, 336 h, time 14 day
[45] = Toxicity in male C57BL/6 mouse implanted with mouse B16-F10 cells assessed as effect on kidney morphology at 100 mg/kg, ip administered once daily for 14 days by H and E staining based analysis; assay type: organism-based; conditions: in vivo, 336 h, time 14 day
[46] = Toxicity in male C57BL/6 mouse implanted with mouse B16-F10 cells assessed as effect on heart morphology at 100 mg/kg, ip administered once daily for 14 days by H and E staining based analysis; assay type: organism-based; conditions: in vivo, 336 h, time 14 day

COc1ccc2cc(-c3ccc(NS(=O)(=O)C(F)(F)F)cc3)ncc2c1O
CL/F [1]: 3 L/h/kg | Activity (B16-F10 [2]): Non-Toxic | Tmax [3]: 0.25 h | Activity (U-87 MG): Non-Toxic | Vd [4]: 6.9 L/kg | Vd [5]: 14.376 L/kg | Activity (HEK-293T): Non-Toxic | AUC(0-t) at 8 h [6]: 6.69 µg·h/mL | half-life [7]: 2.8 h | AUC(0-inf) [8]: 0.917 µg·h/mL | Kd [9]: 0.74 µM | koff [10]: 0.021 s⁻¹ | Activity [11]: Non-Toxic | Activity (B16-F10 [12]): Dose-Dependent Effect | Kd [13]: 0.45 µM | Ka [14]: 4.9 10^4/Ms | Cmax [15]: 5.19 µg/mL | AUC(0-inf) [16]: 6.66 µg·h/mL | IC50 [17]: 9.29 µM | Tmax [18]: 1.33 h | Tmax [19]: 4.98 min | bioavailability [20]: 61.9% | Cmax [21]: 11.4 µg/mL | Ka [22]: 4.69 10^4/Ms | AUC(0-t) at 8 h [23]: 0.916 µg·h/mL | IC50 [24]: 7.23 µM | bioavailability [25]: 72.6% | Activity (HeLa): Non-Toxic | AUC(0-inf) [26]: 28.4 µg·h/mL | Activity [27]: Non-Toxic | clearance [28]: 2.25 L/h/kg | CL/F [29]: 3.58 L/h/kg | Cmax [30]: 3.42 µg/mL | Activity [31]: Non-Toxic | Activity [32]: Non-Toxic | IC50 [33]: 0.31 µM | half-life [34]: 2.14 h | IC50 [35]: 0.08 µM | Vd [36]: 5.17 L/kg | half-life [37]: 1.2 h | AUC(0-t) at 8 h [38]: 23.3 µg·h/mL | Activity [39]: Non-Toxic | Activity [40]: Non-Toxic

Cn1cc(C[C@H](N)C(=O)O)c2ccccc21 [(L)-1-METHYLTRYPTOPHAN]
Activity [41]: Non-Toxic | Activity [42]: Non-Toxic | Activity [43]: Non-Toxic | Activity [44]: Non-Toxic | Activity [45]: Non-Toxic | Activity [46]: Non-Toxic

From ChEMBL document CHEMBL5614442, “Discovery, synthesis and biological evaluation of novel isoquinoline derivatives as potent indoleamine 2, 3-dioxygenase 1 and tryptophan 2, 3-dioxygenase dual inhibitors” (Eur J Med Chem, 2024)
